Test systems include LOX IMVI melanoma; MALME-3M melanoma; MOLT-4 leukemia; OVCAR-4 ovarian; RXF 393 renal; SK-OV-3 ovarian; SNB-75 CNS; SR leukemia; UACC-62 melanoma; COLO 205 colon.
Holding throughout (assay): NCI anticancer screen, dose series, 48 h

Each structure is given as a SMILES string.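 Exposure lasted 48 hours, with cells grown in 96-well plates and compounds tested at five concentrations. GI50: concentration for 50% inhibition of growth. At the TGI there is no net growth.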

Take `COC1CCC(O)C(CO)O1` (stereo not drawn): the TGI was 65.4 µM in the test on LOX IMVI melanoma; 65.3 µM in the test on MALME-3M melanoma; greater than 100 µM with MOLT-4 leukemia; greater than 100 µM in the test with OVCAR-4 ovarian; greater than 100 µM with RXF 393 renal; greater than 100 µM in the test with SK-OV-3 ovarian. Moreover, the TGI with SNB-75 CNS, with SR leukemia and with UACC-62 melanoma was greater than 100 µM each time.
On to `NCC(=O)N[C@H]1c2ccsc2/C(=N/O)[C@H]1O`, for which the TGI in the test on COLO 205 colon, with LOX IMVI melanoma, in the test on MALME-3M melanoma, in the test with MOLT-4 leukemia, with OVCAR-4 ovarian and with RXF 393 renal was greater than 100 µM each time. Moreover, the TGI in the test on SK-OV-3 ovarian, with SR leukemia and with UACC-62 melanoma was greater than 100 µM in each case.
Regarding `COc1ccccc1C1C(C#N)=C(N)SC(N)=C1C#N`, the GI50 in the test on COLO 205 colon is greater than 100 µM; with LOX IMVI melanoma it was 50.2 µM; in the test with MALME-3M melanoma, 81.3 µM; in the test with MOLT-4 leukemia, 45 µM; in the test with OVCAR-4 ovarian, 81.1 µM; in the test on RXF 393 renal it was greater than 100 µM. Besides, the figures for the GI50 in the test with SK-OV-3 ovarian, with SNB-75 CNS and in the test on SR leukemia were greater than 100 µM, 39.2 µM and 16.3 µM, respectively. The TGI with COLO 205 colon, in the test with LOX IMVI melanoma, in the test with MALME-3M melanoma, in the test on MOLT-4 leukemia, in the test on OVCAR-4 ovarian and with RXF 393 renal was greater than 100 µM in each case. For the same molecule, the figures for the TGI in the test on SK-OV-3 ovarian, in the test on SNB-75 CNS and in the test with SR leukemia were greater than 100 µM, greater than 100 µM and 83 µM, respectively.
With `CCOC(=O)c1ccc(N2C(=O)/C(=C/c3ccc(N(CCC#N)CCC#N)cc3)N=C2c2cc([N+](=O)[O-])ccc2Cl)cc1`, the TGI with COLO 205 colon, in the test with LOX IMVI melanoma, in the test on MALME-3M melanoma, in the test on MOLT-4 leukemia, in the test on OVCAR-4 ovarian and in the test with RXF 393 renal was greater than 100 µM throughout. In addition, the TGI with SK-OV-3 ovarian, with SR leukemia and in the test on UACC-62 melanoma was greater than 100 µM each time.
Turning to `CC1OC1C(=O)P(=O)(O)O` (stereo not drawn), the TGI with COLO 205 colon, in the test with LOX IMVI melanoma, in the test with MOLT-4 leukemia, with OVCAR-4 ovarian, in the test with SK-OV-3 ovarian and in the test with SNB-75 CNS was greater than 100 µM in each case. Also, the TGI in the test on SR leukemia and in the test on UACC-62 melanoma was greater than 100 µM in each case.

For the origin of these results see PubChem BioAssay (NCI).
